The numbers were not newly measured in patent US20140315870A1, “COMPOSITION COMPRISING A GLUCOCORTICOID AND A THIAZOLIDINEDIONE FOR INDUCING COMPELTE ADIPOGENIC DIFFERENTIATION OF MAMMALIAN STEM CELLS” (UNIVERSIDAD DEL DESARROLLO, priority 2011, published 2014), which cites them from elsewhere.

The conditions of this series: chronic consumption in humans.

As to `CN(CCOc1ccc(CC2SC(=O)NC2=O)cc1)c1ccccn1` (stereo not shown) [rosiglitazone], the “increase in the chance for cardiovascular accidents” value is recorded as 50%.
